Data taken from ChEMBL document CHEMBL1201862, “PubChem BioAssay data set” (2004).
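Protocol summary: plate cells (96-well), add compound at 5 concentrations, incubate 48 h, interpolate endpoints linearly. The concentration for 50% growth inhibition is given as GI50.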 Active and inactive are the calls of the source. Rule as the data show it: active = GI50 up to about 1.1 µM and inactive = higher.

What was measured:
Experiment in all cases: inhibition of tumour cell growth, NCI panel, 48 h
[1] = test system: 786-0
[2] = test system: A498
[3] = test system: A549
[4] = test system: ACHN
[5] = test system: BT-549
[6] = test system: CAKI-1
[7] = test system: COLO 205
[8] = test system: DU-145
[9] = test system: EKVX
[10] = test system: HCC 2998
[11] = test system: HCT-116
[12] = test system: HCT-15
[13] = test system: HOP-62
[14] = test system: HOP-92
[15] = test system: HT-29
[16] = test system: Hs-578T
[17] = test system: IGROV-1
[18] = test system: K562
[19] = test system: KM12
[20] = test system: M14
[21] = test system: MCF7
[22] = test system: MDA-MB-231
[23] = test system: MDA-MB-435
[24] = test system: MDA-N
[25] = test system: MOLT-4
[26] = test system: Malme-3M
[27] = test system: NCI-H23
[28] = test system: NCI-H460
[29] = test system: NCI-H522
[30] = test system: NCI/ADR-RES
[31] = test system: OVCAR-3
[32] = test system: OVCAR-4
[33] = test system: OVCAR-5
[34] = test system: OVCAR-8
[35] = test system: PC-3
[36] = test system: RPMI-8226
[37] = test system: RXF 393
[38] = test system: SF-268
[39] = test system: SF-295
[40] = test system: SK-MEL-28
[41] = test system: SK-MEL-2
[42] = test system: SK-MEL-5
[43] = test system: SK-OV-3
[44] = test system: SNB-19
[45] = test system: SNB-75
[46] = test system: SW-620
[47] = test system: T47D
[48] = test system: TK-10
[49] = test system: U-251
[50] = test system: UACC-257
[51] = test system: UACC-62
[52] = test system: UO-31
[53] = test system: CCRF-CEM
[54] = test system: LOX IMVI
[55] = test system: SN12C
[56] = test system: SR
[57] = test system: NCI-H226
[58] = test system: SF-539

C[C@@H]1OC(=O)C[C@H]2CC(=O)N(CCC3CN(C(=O)OCc4ccccc4)c4ccccc43)C[C@@H]21 (some centres undefined)
GI50 [1]: > 100 µM (inactive)
GI50 [2]: > 100 µM (inactive)
GI50 [3]: > 100 µM (inactive)
GI50 [4]: > 100 µM (inactive)
GI50 [5]: > 100 µM (inactive)
GI50 [6]: > 100 µM (inactive)
GI50 [7]: > 100 µM (inactive)
GI50 [8]: > 100 µM (inactive)
GI50 [9]: > 100 µM (inactive)
GI50 [10]: > 100 µM (inactive)
GI50 [11]: > 100 µM (inactive)
GI50 [12]: > 100 µM
GI50 [13]: > 100 µM (inactive)
GI50 [14]: > 100 µM (inactive)
GI50 [15]: > 100 µM (inactive)
GI50 [16]: > 100 µM (inactive)
GI50 [17]: > 100 µM (inactive)
GI50 [18]: > 100 µM (inactive)
GI50 [19]: > 100 µM (inactive)
GI50 [20]: > 100 µM (inactive)
GI50 [21]: > 100 µM (inactive)
GI50 [22]: > 100 µM (inactive)
GI50 [23]: > 100 µM (inactive)
GI50 [24]: > 100 µM (inactive)
GI50 [25]: > 100 µM (inactive)
GI50 [26]: > 100 µM (inactive)
GI50 [27]: > 100 µM (inactive)
GI50 [28]: > 100 µM (inactive)
GI50 [29]: > 100 µM (inactive)
GI50 [30]: > 100 µM (inactive)
GI50 [31]: > 100 µM (inactive)
GI50 [32]: > 100 µM (inactive)
GI50 [33]: > 100 µM (inactive)
GI50 [34]: > 100 µM (inactive)
GI50 [35]: > 100 µM (inactive)
GI50 [36]: > 100 µM (inactive)
GI50 [37]: > 100 µM (inactive)
GI50 [38]: > 100 µM (inactive)
GI50 [39]: > 100 µM (inactive)
GI50 [40]: > 100 µM (inactive)
GI50 [41]: > 100 µM (inactive)
GI50 [42]: > 100 µM (inactive)
GI50 [43]: > 100 µM (inactive)
GI50 [44]: > 100 µM (inactive)
GI50 [45]: > 100 µM (inactive)
GI50 [46]: > 100 µM (inactive)
GI50 [47]: > 100 µM (inactive)
GI50 [48]: > 100 µM (inactive)
GI50 [49]: > 100 µM (inactive)
GI50 [50]: > 100 µM (inactive)
GI50 [51]: > 100 µM (inactive)
GI50 [52]: > 100 µM (inactive)

C/C=C(/C)c1cnc(CC(C)C)c(=O)[nH]1
GI50 [1]: > 100 µM (inactive)
GI50 [2]: > 100 µM (inactive)
GI50 [3]: > 100 µM (inactive)
GI50 [4]: > 100 µM (inactive)
GI50 [5]: > 100 µM (inactive)
GI50 [6]: > 100 µM (inactive)
GI50 [53]: > 100 µM (inactive)
GI50 [7]: > 100 µM (inactive)
GI50 [8]: > 100 µM (inactive)
GI50 [9]: > 100 µM (inactive)
GI50 [10]: > 100 µM (inactive)
GI50 [11]: > 100 µM (inactive)
GI50 [12]: > 100 µM
GI50 [13]: > 100 µM (inactive)
GI50 [14]: > 100 µM (inactive)
GI50 [15]: > 100 µM (inactive)
GI50 [16]: > 100 µM (inactive)
GI50 [17]: > 100 µM (inactive)
GI50 [18]: > 100 µM (inactive)
GI50 [19]: > 100 µM (inactive)
GI50 [54]: > 100 µM (inactive)
GI50 [22]: > 100 µM (inactive)
GI50 [23]: > 100 µM (inactive)
GI50 [24]: > 100 µM (inactive)
GI50 [25]: > 100 µM (inactive)
GI50 [27]: > 100 µM (inactive)
GI50 [28]: > 100 µM (inactive)
GI50 [31]: > 100 µM (inactive)
GI50 [32]: > 100 µM (inactive)
GI50 [33]: > 100 µM (inactive)
GI50 [34]: > 100 µM (inactive)
GI50 [35]: > 100 µM (inactive)
GI50 [36]: 0.35 µM (active)
GI50 [37]: > 100 µM (inactive)
GI50 [38]: > 100 µM (inactive)
GI50 [39]: > 100 µM (inactive)
GI50 [40]: > 100 µM (inactive)
GI50 [41]: > 100 µM (inactive)
GI50 [42]: > 100 µM (inactive)
GI50 [43]: > 100 µM (inactive)
GI50 [55]: > 100 µM (inactive)
GI50 [44]: > 100 µM (inactive)
GI50 [45]: > 100 µM (inactive)
GI50 [56]: > 100 µM (inactive)
GI50 [46]: > 100 µM (inactive)
GI50 [47]: > 100 µM (inactive)
GI50 [48]: > 100 µM (inactive)
GI50 [49]: > 100 µM (inactive)
GI50 [50]: > 100 µM (inactive)
GI50 [51]: > 100 µM (inactive)
GI50 [52]: > 100 µM (inactive)

O=C(/C=C/c1ccc(Cl)cc1)Oc1ccc(C=C2CCC/C(=C\c3ccc(OC(=O)/C=C/c4ccc(Cl)cc4)cc3)C2=O)cc1
GI50 [1]: > 100 µM (inactive)
GI50 [2]: > 100 µM (inactive)
GI50 [3]: > 100 µM (inactive)
GI50 [4]: > 100 µM (inactive)
GI50 [5]: > 100 µM (inactive)
GI50 [6]: > 100 µM (inactive)
GI50 [7]: > 100 µM (inactive)
GI50 [8]: > 100 µM (inactive)
GI50 [9]: > 100 µM (inactive)
GI50 [10]: > 100 µM (inactive)
GI50 [11]: > 100 µM (inactive)
GI50 [12]: > 100 µM
GI50 [13]: > 100 µM (inactive)
GI50 [14]: > 100 µM (inactive)
GI50 [15]: > 100 µM (inactive)
GI50 [16]: > 100 µM (inactive)
GI50 [17]: > 100 µM (inactive)
GI50 [18]: > 100 µM (inactive)
GI50 [19]: > 100 µM (inactive)
GI50 [54]: > 100 µM (inactive)
GI50 [20]: > 100 µM (inactive)
GI50 [21]: > 100 µM (inactive)
GI50 [22]: > 100 µM (inactive)
GI50 [23]: > 100 µM (inactive)
GI50 [24]: > 100 µM (inactive)
GI50 [25]: > 100 µM (inactive)
GI50 [26]: > 100 µM (inactive)
GI50 [57]: > 100 µM (inactive)
GI50 [27]: > 100 µM (inactive)
GI50 [28]: > 100 µM (inactive)
GI50 [29]: > 100 µM (inactive)
GI50 [30]: > 100 µM (inactive)
GI50 [31]: > 100 µM (inactive)
GI50 [32]: > 100 µM (inactive)
GI50 [33]: > 100 µM (inactive)
GI50 [34]: > 100 µM (inactive)
GI50 [35]: > 100 µM (inactive)
GI50 [36]: > 45.9 µM (inactive)
GI50 [37]: > 100 µM (inactive)
GI50 [38]: > 100 µM (inactive)
GI50 [39]: > 100 µM (inactive)
GI50 [58]: > 100 µM (inactive)
GI50 [40]: > 100 µM (inactive)
GI50 [41]: > 100 µM (inactive)
GI50 [42]: > 100 µM (inactive)
GI50 [43]: > 100 µM (inactive)
GI50 [55]: > 100 µM (inactive)
GI50 [44]: > 100 µM (inactive)
GI50 [45]: > 79.1 µM (inactive)
GI50 [46]: > 100 µM (inactive)
GI50 [47]: > 100 µM (inactive)
GI50 [48]: > 100 µM (inactive)
GI50 [49]: > 100 µM (inactive)
GI50 [50]: > 100 µM (inactive)
GI50 [51]: > 100 µM (inactive)
GI50 [52]: > 100 µM (inactive)
